Literature values, collected in patent publication US5391753A, “Heteroaryl substituted phenylethenyl compounds having retinoid-like biological activity” (Allergan, Inc., priority 1993, dated 1995).

Tested on: TPA induced ODC activity (ornithine decarboxylase)
Conditions: qualitative statement on retinoic acid, background

## CC1=C(/C=C/C(C)=C/C=C/C(C)=C/C(=O)O)C(C)(C)CCC1 [Retinoic acid]
  inhibition of induction of ODC activity by TPA: inhibits this induction of ODC activity by TPA
